According to patent publication US10870851B2, “Non-coding RNAs linked to immortality and associated methods and compositions” (The Regents of the University of California, priority 2015, dated 2020):
Entries after “also recorded” stand apart in the source; their conditions may differ.

Columns and labels:
[1] = tested on: Immortal, MORT(−) 184Dp16sMY HMEC; assay: Reversal of immortalization: lentiviral restoration of MORT expression in immortal HMEC; format: cell-based, human; details: qRT/PCR during MORT-mediated senescence
Description: Clontech's Tet-On® 3G system was used to construct lentiviral vectors that express 1) the MORT lncRNA sequence (MORT-Exact)(SEQ ID NO:8) and 2) an aberrant MORT lncRNA to which 60 nucleotides were added at the 5′ end of MORT that was predicted to disrupt RNA secondary structure rendering MORT either hypomorphic or completely nonfunctional (MORT-null). […] Immortal, MORT(−) 184Dp16sMY HMEC were either untreated or transduced with a lentivirus that expressed MORT-Exact, MORT-Null, or eGFP. Cells transduced with MORT-Exact cease growth and take on senescent phenotypes (FIG. 19A-19B).

[2] = MORT transcript half-life using actinomycin D treatment; format: cell-based; details: actinomycin D 1 μg/ml; c-MYC and GAPDH as reference genes
Description: FIG. 7 is a graph showing determination of MORT transcript half-life using actinomycin D (1 μg/ml) treatment. c-MYC was used as a short half-life reference gene and GAPDH was used as a long half-life reference gene. (Yang et al. 2003). […] The error bars show the SEM of 3 independent experiments.
(§1) The reverse transcription and real-time PCR was performed as previously described in Oshiro M M, Watts G S, Wozniak R J, Junk D J, Munoz-Rodriguez J L, Domann F E, Futscher B W. Mutant p53 and aberrant cytosine methylation cooperate to silence gene expression. Oncogene 2003; 22:3624-34 (reference 1 herein), and Vrba L, Junk D J, Novak P, Futscher B W. p53 induces distinct epigenetic states at its direct target promoters. BMC Genomics 2008; 9:486 (reference 41 herein), both incorporated herein by reference. Primers were designed for MORT, GAPDH, MYC and XIST and used with the Human Universal Probe Library Set (Roche Diagnostics). The cycle threshold (Ct) MORT values were normalized between the samples using GAPDH Ct values. The data were then converted into a value that is in log 2 scale, but increases with the expression level using formula 40-Ct. Since 40 was the total number of PCR cycles it was the lowest detectable expression level and therefore it was considered the background and set as 0 to display the data in the plots.

184Dp16sMY HMEC = assay: 5-AdC treatment of immortalized MORT negative HMEC line 184Dp16sMY; format: cell-based, human; details: 96 h treatment, three concentrations of 5-AdC (FIG. 14)
Description: Finite and immortalized HMEC were generated and grown as previously described^1, 2, 32. […]. Retroviral transduction was performed as described^1, 2. Breast tumor lines MDA-MB231, MDA-MB453, and MCF7 were grown as previously described^33, 34. […]
as §1, with “plots. […]” for “plots.”

MDA-MB453 = assay: 5-AdC treatment of MORT-negative breast tumor line MDA-MB453; format: cell-based, human; details: 1 μM 5-AdC for 96 h
Description: (§2) Finite and immortalized HMEC were generated and grown as previously described^1, 2, 32. […] […]. Retroviral transduction was performed as described^1, 2. Breast tumor lines MDA-MB231, MDA-MB453, and MCF7 were grown as previously described^33, 34.
(§3) Cells were treated with 1 μM 5-aza-2′-deoxycytidine (Sigma) for 96 h, as previously described^33.
(§4) DNA methylation analysis by MassARRAY. DNA methylation analysis by Sequenom MassARRAY (Sequenom) was performed as described^40. Primer sequences are provided in FIG. 18 and are SEQ ID NOs: 3, 4, 5, and 6. Oligonucleotides used for MassARRAY analysis were ordered from Integrated DNA Technologies. Two MassARRAY amplicons covered 800 bp region including the first MORT exon and about 500 bp upstream MORT transcription start (FIG. 4C). The mean DNA methylation of all 26 informative CpG units within MassARRAY amplicons was used for data presentation and statistical analysis.
(§5) The reverse transcription and real-time PCR was performed as previously described in Oshiro M M, Watts G S, Wozniak R J, Junk D J, Munoz-Rodriguez J L, Domann F E, Futscher B W. Mutant p53 and aberrant cytosine methylation cooperate to silence gene expression. Oncogene 2003; 22:3624-34 (reference 1 herein), and Vrba L, Junk D J, Novak P, Futscher B W. p53 induces distinct epigenetic states at its direct target promoters. […]

MCF7 = assay: 5-AdC treatment of MORT-negative breast tumor line MCF7; format: cell-based, human; details: 1 μM 5-AdC for 96 h
Description: as §2, §3, §4, §5

MDA-MB231 = assay: 5-AdC treatment of MORT-negative breast tumor line MDA-MB231; format: cell-based, human; details: 1 μM 5-AdC for 96 h
Description: as §2, §3, §4, §5

| Compound | induced overexpression of p16 or p14 [1] | induction of p53 and p53 target genes MDM2, p21, PIG3, MASPIN [1] | MORT transcript half-life [2] | MORT transcription (transcript level) (184Dp16sMY HMEC) | level of DNA methylation of the MORT promoter (MDA-MB453; Sequenom MassARRAY) | MORT expression (transcript level) (MDA-MB453; real-time PCR) | level of DNA methylation of the MORT promoter (MCF7; Sequenom MassARRAY) | MORT expression (transcript level) (MCF7; real-time PCR) | level of DNA methylation of the MORT promoter (MDA-MB231; Sequenom MassARRAY) | MORT expression (transcript level) (MDA-MB231; real-time PCR) |
| --- | --- | --- | --- | --- | --- | --- | --- | --- | --- | --- |
| MORT: long non-coding RNA (lincRNA), 1.53 kb, ribonucleotide sequence SEQ ID NO:7 | not due to induced overexpression of p16 or p14 | neither p53 nor well-defined p53 target genes, MDM2, p21, PIG3, and MASPIN were induced | ~15 h | – | – | – | – | – | – | – |
| Nc1ncn([C@H]2C[C@H](O)[C@@H](CO)O2)c(=O)n1 [5-AdC, 5-aza-2′-deoxycytidine] | – | – | – | reactivation of MORT transcription; also recorded: increased MORT level | significant decrease | reactivation of MORT expression | significant decrease | reactivation of MORT expression | significant decrease | reactivation of MORT expression |
